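Here, GI50 denotes the concentration required for 50% inhibition of growth. At the TGI there is no net growth.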
Key:
Test in all cases: NCI anticancer screen, dose series, 384-well format
786-0 renal = tested on: 786-0 renal
A498 renal = tested on: A498 renal
A549 NSCLC = tested on: A549 NSCLC
ACHN renal = tested on: ACHN renal
BT-549 breast = tested on: BT-549 breast
CAKI-1 renal = tested on: CAKI-1 renal
CCRF-CEM leukemia = tested on: CCRF-CEM leukemia
COLO 205 colon = tested on: COLO 205 colon
DU-145 prostate = tested on: DU-145 prostate
EKVX NSCLC = tested on: EKVX NSCLC
HCC-2998 colon = tested on: HCC-2998 colon
HCT-15 colon = tested on: HCT-15 colon
HL-60(TB) leukemia = tested on: HL-60(TB) leukemia
HOP-62 NSCLC = tested on: HOP-62 NSCLC
HOP-92 NSCLC = tested on: HOP-92 NSCLC
HS 578T breast = tested on: HS 578T breast
HT29 colon = tested on: HT29 colon
IGROV1 ovarian = tested on: IGROV1 ovarian
K-562 leukemia = tested on: K-562 leukemia
KM12 colon = tested on: KM12 colon
LOX IMVI melanoma = tested on: LOX IMVI melanoma
M14 melanoma = tested on: M14 melanoma
MALME-3M melanoma = tested on: MALME-3M melanoma
MCF7 breast = tested on: MCF7 breast
MDA-MB-231 breast = tested on: MDA-MB-231 breast
MDA-MB-435 melanoma = tested on: MDA-MB-435 melanoma
MDA-MB-468 breast = tested on: MDA-MB-468 breast
MOLT-4 leukemia = tested on: MOLT-4 leukemia
NCI-H226 lung = tested on: NCI-H226 lung
NCI-H23 lung = tested on: NCI-H23 lung
NCI-H322M lung = tested on: NCI-H322M lung
NCI-H460 NSCLC = tested on: NCI-H460 NSCLC
NCI-H522 lung = tested on: NCI-H522 lung
NCI/ADR-RES ovarian = tested on: NCI/ADR-RES ovarian
OVCAR-3 ovarian = tested on: OVCAR-3 ovarian
OVCAR-4 ovarian = tested on: OVCAR-4 ovarian
OVCAR-5 ovarian = tested on: OVCAR-5 ovarian
OVCAR-8 ovarian = tested on: OVCAR-8 ovarian
PC-3 prostate = tested on: PC-3 prostate
RPMI-8226 leukemia = tested on: RPMI-8226 leukemia
RXF 393 renal = tested on: RXF 393 renal
SF-268 CNS = tested on: SF-268 CNS
SF-295 CNS = tested on: SF-295 CNS
SF-539 CNS = tested on: SF-539 CNS
SK-MEL-28 melanoma = tested on: SK-MEL-28 melanoma
SK-MEL-5 melanoma = tested on: SK-MEL-5 melanoma
SK-OV-3 ovarian = tested on: SK-OV-3 ovarian
SN12C renal = tested on: SN12C renal
SNB-19 CNS = tested on: SNB-19 CNS
SNB-75 CNS = tested on: SNB-75 CNS
SR leukemia = tested on: SR leukemia
SW-620 colon = tested on: SW-620 colon
T-47D breast = tested on: T-47D breast
TK-10 renal = tested on: TK-10 renal
UACC-257 melanoma = tested on: UACC-257 melanoma
UACC-62 melanoma = tested on: UACC-62 melanoma
UO-31 renal = tested on: UO-31 renal

CCC(CC)n1cnc2c(-c3cnc(N)cn3)nc(N3CC4CCC(C3)O4)nc21
GI50 ([…]-0 renal): 2750 nM
TGI (786-0 renal): > 100000 nM
GI50 (A498 renal): 173 nM
TGI (A498 renal): 1320 nM
GI50 (A549 NSCLC): 418 nM
TGI (A549 NSCLC): > 100000 nM
GI50 (ACHN renal): 523 nM
TGI (ACHN renal): > 100000 nM
GI50 (BT-549 breast): 1060 nM
TGI (BT-549 breast): 5220 nM
GI50 (CAKI-1 renal): 775 nM
TGI (CAKI-1 renal): 45800 nM
GI50 (CCRF-CEM leukemia): 358 nM
TGI (CCRF-CEM leukemia): 14000 nM
GI50 (COLO 205 colon): 425 nM
TGI (COLO 205 colon): > 100000 nM
GI50 (DU-145 prostate): 2030 nM
TGI (DU-145 prostate): > 100000 nM
GI50 (EKVX NSCLC): 977 nM
TGI (EKVX NSCLC): 9920 nM
GI50 (HCC-2998 colon): 10500 nM
TGI (HCC-2998 colon): > 100000 nM
GI50 (HCT-15 colon): 566 nM
TGI (HCT-15 colon): > 100000 nM
GI50 (HL-60(TB) leukemia): 44500 nM
TGI (HL-60(TB) leukemia): > 100000 nM
GI50 (HOP-62 NSCLC): 1010 nM
TGI (HOP-62 NSCLC): 39100 nM
GI50 (HOP-92 NSCLC): 298 nM
TGI (HOP-92 NSCLC): 4960 nM
GI50 (HS 578T breast): 205 nM
TGI (HS 578T breast): 927 nM
GI50 (HT29 colon): 2530 nM
TGI (HT29 colon): > 100000 nM
GI50 (IGROV1 ovarian): 229 nM
TGI (IGROV1 ovarian): 894 nM
GI50 (K-562 leukemia): 1680 nM
TGI (K-562 leukemia): > 100000 nM
GI50 (KM12 colon): 508 nM
TGI (KM12 colon): > 100000 nM
GI50 (LOX IMVI melanoma): 1080 nM
TGI (LOX IMVI melanoma): 8870 nM
GI50 (M14 melanoma): 493 nM
TGI (M14 melanoma): > 100000 nM
GI50 (MALME-3M melanoma): 69.4 nM
TGI (MALME-3M melanoma): 531 nM
GI50 (MCF7 breast): 184 nM
TGI (MCF7 breast): 80300 nM
GI50 (MDA-MB-231 breast): 680 nM
TGI (MDA-MB-231 breast): > 100000 nM
GI50 (MDA-MB-435 melanoma): 1580 nM
TGI (MDA-MB-435 melanoma): 39900 nM
GI50 (MDA-MB-468 breast): 375 nM
TGI (MDA-MB-468 breast): 1200 nM
GI50 (MOLT-4 leukemia): 375 nM
TGI (MOLT-4 leukemia): 10500 nM
GI50 (NCI-H226 lung): 540 nM
TGI (NCI-H226 lung): 6520 nM
GI50 (NCI-H23 lung): 1270 nM
TGI (NCI-H23 lung): > 100000 nM
GI50 (NCI-H322M lung): 394 nM
TGI (NCI-H322M lung): > 100000 nM
GI50 (NCI-H460 NSCLC): 187 nM
TGI (NCI-H460 NSCLC): > 100000 nM
GI50 (NCI-H522 lung): 314 nM
TGI (NCI-H522 lung): > 100000 nM
GI50 (NCI/ADR-RES ovarian): 2770 nM
TGI (NCI/ADR-RES ovarian): > 100000 nM
GI50 (OVCAR-3 ovarian): 901 nM
TGI (OVCAR-3 ovarian): > 100000 nM
GI50 (OVCAR-4 ovarian): 635 nM
TGI (OVCAR-4 ovarian): 3790 nM
GI50 (OVCAR-5 ovarian): 685 nM
TGI (OVCAR-5 ovarian): > 100000 nM
GI50 (OVCAR-8 ovarian): 1750 nM
TGI (OVCAR-8 ovarian): > 100000 nM
GI50 (PC-3 prostate): 348 nM
TGI (PC-3 prostate): > 100000 nM
GI50 (RPMI-8226 leukemia): 29 nM
TGI (RPMI-8226 leukemia): 151 nM
GI50 (RXF 393 renal): 1290 nM
TGI (RXF 393 renal): > 100000 nM
GI50 (SF-268 CNS): 2570 nM
TGI (SF-268 CNS): > 100000 nM
GI50 (SF-295 CNS): 267 nM
TGI (SF-295 CNS): 2280 nM
GI50 (SF-539 CNS): 1630 nM
TGI (SF-539 CNS): > 100000 nM
GI50 (SK-MEL-28 melanoma): 309 nM
TGI (SK-MEL-28 melanoma): 5990 nM
GI50 (SK-MEL-5 melanoma): 288 nM
TGI (SK-MEL-5 melanoma): 1610 nM
GI50 (SK-OV-3 ovarian): 400 nM
TGI (SK-OV-3 ovarian): 5190 nM
GI50 (SN12C renal): 433 nM
TGI (SN12C renal): > 100000 nM
GI50 (SNB-19 CNS): 8090 nM
TGI (SNB-19 CNS): > 100000 nM
GI50 (SNB-75 CNS): 312 nM
TGI (SNB-75 CNS): 7840 nM
GI50 (SR leukemia): 189 nM
TGI (SR leukemia): 1170 nM
GI50 (SW-620 colon): 3460 nM
TGI (SW-620 colon): > 100000 nM
GI50 (T-47D breast): 66.9 nM
TGI (T-47D breast): 431 nM
GI50 (TK-10 renal): 1390 nM
TGI (TK-10 renal): > 100000 nM
GI50 (UACC-257 melanoma): 2370 nM
TGI (UACC-257 melanoma): > 100000 nM
GI50 (UACC-62 melanoma): 416 nM
TGI (UACC-62 melanoma): 4610 nM
GI50 (UO-31 renal): 3030 nM
TGI (UO-31 renal): > 100000 nM
